The values below come from patent publication US8841233B2, “Herbicidal compositions comprising 4-amino-3-chloro-5-fluoro-6-(4-chloro-2-fluoro-3-methoxyphenyl) pyridine-2-carboxylic acid or a derivative thereof and 4-hydroxyphenyl-pyruvate dioxygenase (HPPD) inhibitors” (Dow Agrosciences LLC, priority 2012, dated 2014).

One test has as its system XANST. The experiment in a line: Pre-emergence soil-applied weed control, greenhouse (Example III). In kind it is in vivo, Xanthium strumarium L. An excerpt: (§1) Evaluation of Pre-emergence Soil-Applied Herbicidal Mixtures for Weed Control
(§2) Seeds or nutlets of the desired test plant species were planted in a soil matrix prepared by mixing a loam soil (32 percent silt, 23 percent clay, and 45 percent sand, with a pH of about 6.5 and an organic matter content of about 1.9 percent) and calcareous grit in an 80 to 20 ratio. The soil matrix was contained in plastic pots with a volume of 1 quart and a surface area of 83.6 square centimeters (cm^2).
(§3) Treatments consisted of the benzyl ester of 4-amino-3-chloro-5-fluoro-6-(4-chloro-2-fluoro-3-methoxy-phenyl)pyridine-2-carboxylic acid (compound A) formulated as an SC (suspension concentrate) and various herbicidal components alone and in combination. Forms of compound A were applied on an acid equivalent basis.
(§4) Other herbicidal components were applied on an acid equivalent or active ingredient basis and included the 4-hydroxyphenyl pyruvate dioxygenase (HPPD)-inhibiting herbicide, isoxaflutole, formulated as Balance Pro®.
(§5) Treatment requirements were calculated based upon the rates being tested, the concentration of active ingredient or acid equivalent in the formulation, and a 12 mL application volume at a rate of 187 L/ha.
(§6) For treatments comprised of formulated compounds, measured amounts of compounds were placed individually in 25 mL glass vials and diluted in a volume of 1.25% (v/v) Agri-Dex® crop oil concentrate (COC) to obtain 12× stock solutions. […] Application solutions were prepared by adding an appropriate amount of each stock solution (e.g., 1 mL) and diluted to the appropriate final concentrations with the addition of 10 mL of an aqueous mixture of 1.25% (v/v) COC so that the final spray solutions contained 1.25% (v/v) COC.
(§7) All stock solutions and applications solutions were visually inspected for compound compatibility prior to application. Spray solutions were applied to the soil with an overhead Mandel track sprayer equipped with a 8002E nozzles calibrated to deliver 187 L/ha over an application area of 0.503 m^2 at a spray height of 18 inches (46 cm) above average pot height. Control pots were sprayed in the same manner with the solvent blank.
(§8) The treated and control pots were placed in a greenhouse and top watered as needed. When required to ensure good germination and healthy plants, a fungicide treatment and/or other chemical or physical treatment was applied. […] After approximately 4 weeks, the condition of the test plants as compared with that of the untreated plants was determined visually and scored on a scale of 0 to 100 percent where 0 corresponds to no injury or growth inhibition and 100 corresponds to complete kill. […]

The next test relates to IPOHE. The test is described as above. In kind it is in vivo, Ipomoea hederacea (L.) Jacq.
Excerpt: as §1, §2, §3, §4, §5, §6, §7, §8

Consider `COc1c(Cl)ccc(-c2nc(C(=O)OCc3ccccc3)c(Cl)c(N)c2F)c1F` [Compound A Benzyl Ester, benzyl ester of 4-amino-3-chloro-5-fluoro-6-(4-chloro-2-fluoro-3-methoxy-phenyl)pyridine-2-carboxylic acid], for which the “Visual Weed Control (%) - 32 DAA XANST Obs” value in the test on XANST (8 gae/ha) worked out at 33%; with XANST (16 gae/ha), 35%; in the test on XANST (32 gae/ha), 65%. Also, the “Visual Weed Control (%) - 32 DAA IPOHE Obs” value is 5% in the test on IPOHE (8 gae/ha), 10% with IPOHE (16 gae/ha) and 10% in the test with IPOHE (32 gae/ha).
